# Test results as given in patent US4205086A, “Method for the treatment of gallstones” (priority 1977, dated 1980).
# Where two headings read alike, the source gives them in different places.
# Legend:
# [1] = studies evaluating the solubility of gallstones in a variety of compounds (Example 3); settings: observed for several days
# Experimental: Studies are conducted to evaluate the solubility of gallstones in a variety of compounds.
# [2] = treatment of gallstones by perfusion, general results in practice; format: in vivo, human (patient); settings: for solvency for the gallstones: in vivo; for results in treatment of gallstones: perfusion
# Source text: In accordance with the method of the present invention a selected compound is perfused adjacent the gallstone. For the purposes herein, the term perfusion is intended to encompass the introduction of the compound in a manner that will cause the compound to pass over or around the subject gallstone, and includes equivalent terms such as infusion. The perfusion may be accomplished in accordance with normal procedures, and for example may be performed with a T-tube or an endoscope. The compound utilized by the present invention thereby contacts and gradually dissolves the gallstone. The response of the gallstone to this procedure may be followed, for example, by repeated cholangiograms.
# A compound useful in accordance with the method of the present invention may also comprise a mixture of fatty acids and alcohol esters of fatty acids. Typically the fatty acid esters would be esters of the same fatty acids which exist separately in the solution, although such is not required. It is preferred that the fatty acids which exist either as themselves or in the ester form have from about 2 to about 12 carbon atoms, with from about 8 to about 10 carbon atoms being more preferred. In a most preferred embodiment of the present invention, the method comprises the perfusion of a compound having a mixture of fatty acids from about 8 to about 10 carbon atoms and alcohol esters, particularly glycerides, of fatty acids having from about 8 to about 10 carbon atoms. […].
# [3] = viscosity of compounds used for perfusion (in words); format: physicochemical
# Source text: It is also preferable that the compound not be excessively viscous at the perfusion temperature in view of the need for the compound to move through the perfusion equipment and to pass over or around the gallstone. The degree of viscosity which is tolerable, and the compounds therefore useful in the present invention, may be readily determined by experiment. […] Fatty acids useful in the present invention are generally those having short to medium carbon chain lengths, or from about 2 to about 12 carbon atoms. […]. As previously mentioned, these fatty acids which have melting points above body temperature, which is approximately 37° C., may be combined with the fatty acids which are liquid at body temperature to provide a liquid mixture having relatively low proportions of the higher fatty acids.
# [4] = cited from earlier work; for tolerability by patients / toxicity: organic solvents; for solubilizing capacity for gallstones: 100-200 mM solutions
# [5] = test comparing the solubility of gallstones in glycerol mono-octanoate and 200 mM sodium cholate (Example 2); parameters: species or system human (patient); settings: six days; sodium cholate 200 mM, mono-octanoate solution as in Example 1
compound,measurement,setting,value
CCCCCCCC(=O)OCC [ethanol octanoate],solubility of gallstones in the compound,[1],suitably soluble
CCCCCCCC(=O)OCC(O)CO (stereo not shown) [glycerol mono-octanoate],solubility of gallstones in the compound,[1],suitably soluble
same,solvency for the gallstones,[2],high solvency
same,results in treatment of gallstones,[2],excellent results
same,results in treatment of gallstones,[2]; listed as mono-glyceride of octanoic acid,particularly excellent results
same,viscosity,[3],low viscosity
same,tolerability and adverse symptoms or effects,"human, in vivo",tolerated the procedure well and showed no adverse symptoms or effects
same,stones on follow-up after six days of perfusion,"perfused at 5 ml per hour, after six days, patient",only two very small lucencies were apparent
same,stones on follow-up after 3 additional days of perfusion,"perfused at 5 ml per hour, six days plus 3 additional days, patient",no evidence of the stones
same,results of similar clinical trials,similar clinical trials at the Mayo Clinic,equally good results
CCCCCCCCCC(=O)OCCCC [butanol decanoate],solubility of gallstones in the compound,[1],suitably soluble
propylene glycol mono-octanoate,solvency for the gallstones,[2],high solvency
same,results in treatment of gallstones,[2],particularly excellent results
same,viscosity,[3],low viscosity
C=C(C)[C@H]1CC=C(C)CC1 [d-limonene],tolerability by patients,[4]; prior art,poorly tolerated
same,toxicity,[4]; prior art,potentially toxic
same,results in dissolution of gallstones,[4]; prior art,without highly favorable results
C[C@H](CCC(=O)O)[C@H]1CC[C@H]2[C@@H]3[C@H](O)C[C@@H]4C[C@H](O)CC[C@]4(C)[C@H]3CC[C@]12C [Kenodeoxycholic acid],results in dissolution of gallstones,[4]; prior art,"more preferable, but also is relatively slow"
ClC(Cl)Cl [chloroform],tolerability by patients,[4]; prior art,poorly tolerated
same,toxicity,[4]; prior art,potentially toxic
Oxycholic acid,solubilizing capacity for gallstones,[4]; prior art,definite but low
same,bile acid diarrhea,[4]; in vivo,often with bile acid diarrhea
same,time to disappearance of distal common bile duct stones,[4]; uncontrolled studies,1-4 weeks
C[C@H](CCC(=O)O)[C@H]1CC[C@H]2[C@@H]3[C@H](O)C[C@@H]4C[C@H](O)CC[C@]4(C)[C@H]3C[C@H](O)[C@]12C [sodium cholate],change in size of stones,[5],little or no apparent change
same,solubilizing capacity for gallstones,[4]; prior art,definite but low
same,bile acid diarrhea,[4]; uncontrolled studies,often with bile acid diarrhea
same,time to disappearance of distal common bile duct stones,[4]; uncontrolled studies,1-4 weeks
CCCCCCCC(=O)OCC(COC(=O)CCCCCCC)OC(=O)CCCCCCC [glycerol tri-octanoate],solubility of gallstones in the compound,[1],suitably soluble
heparin,fragmentation or dissolution of gallstones,"[4]; in saline solution, prior art",function poorly
CCCCCCCC(=O)OCCO [ethylene glycol mono-octanoate],solubility of gallstones in the compound,[1],suitably soluble
glycerol di-decanoate,solubility of gallstones in the compound,[1],suitably soluble
CCOCC [ether],tolerability by patients,[4]; prior art,poorly tolerated
same,toxicity,[4]; prior art,potentially toxic
same,results in dissolution of gallstones,[4]; prior art,without highly favorable results
